The test system of this test is Nit11764. Conditions: 40 mM Na-K phosphate pH 7.0.

Broadly, the Km is the concentration of substrate that gives half-maximal velocity. Take `N#C/C=C/c1ccccc1` [Cinnamonitrile]: the Km is 1.27 ± 0.4 mM.
Regarding `N#C/C=C/C#N` [Fumaronitrile], the Km came out at 8.57 ± 0.8 mM.

(Values after PMC7815647 (Biochemistry and Biophysics Reports, 2021).)
